{"source": "patent US20260021106A1", "about": "“COMBINATION THERAPY FOR TREATING CANCERS” (GEISTLICH PHARMA AG, priority 2022, published 2026)", "key": {"[1]": {"system": "human endothelial cell (hEC) spheroids", "assay": "Spheroid assay, VEGF-induced endothelial sprouting", "assay_type": "cell-based", "experimental": "A spheriod assay was performed including growing human endothelial cell (hEC) spheroids and adding VEGF (1000 cells/spheroid; 200 sph/condition) for 24 hours using a hanging drog procedure with methyl-cellulose, then harvesting, adding GP-2250, and suspending in fibrinogen/thrombin matrix. The suspension was then transferred to a 24 well plate and incubated for 24 hours at 37° C. FIG. 1: VEGF-induced Endothelial Sprouting: Impact of GP-2250, Spheroid assay. […] Tip cells form sprouts, and stalk cells form capillary lumen as shown in the image (bottom).\nFIG. 4 quantifies the effects of PBS control, Delta-like 4 (DLL4), and GP-2250 (at 2.5 μg/ml or at 10 μg/ml) on VEGF-induced endothelial cell sprouting."}, "OVCAR8-L": {"system": "OVCAR8-L", "assay": "In vivo therapy experiment, orthotopic OVCAR8-L ovarian cancer mouse model", "parameters": "species or system mice", "details": "GP-2250 500 mg/kg 3 times per week, bevacizumab 6.25 mg/kg, take down day 49", "experimental": "FIG. 5 schematically illustrates the experimental design for in vivo testing of the GP-2250 and bevacizumab on OVCAR8-L mice. The experiment includes testing: 1) IgG control (10 mice, 6.25 mg/kg, BW); 2) GP-2250 (10 mice, 500 mg/kg. 3 times per week); 3) Bevacizumab (10 mice, 6.25 mg/kg, BW) (“BEV”); and 4) the combination of GP-2250 and Bevacizumab.\nTumorigenicity of OVCAR8-L was determined using IVIS imaging. IVIS imaging following OCVAR8-L injection. 1×10^6 cells were injected through i.p., and then tumorigenicity was measured. All mice were injected with high-grade ovarian cancer cells (OVCAR8) labeled with luciferase gene by i.p. route. All mice survived until the end of the study. No mice were euthanized due to the effect of tumor. Five weeks after treatment, all mice were euthanized, body weight was measured, and no significant body weight change in each group.\n(§1) In vivo model of ovarian cancer: Pharmacodynamic study and therapeutic experiment using OVCAR8 ovarian cancer model were performed. FIGS. 8A-8B show the cytotoxic effect of GP-2250 on ovarian cancer cells."}, "VEGF": {"system": "VEGF", "assay": "VEGF secretion in cancer cells", "assay_type": "cell-based", "details": "compared to vehicle", "description": "(§2) GP-2250 inhibits mTOR, AKT and HIF-1α expression."}, "HIF1α": {"system": "HIF1α", "assay": "Western blotting of ovarian cancer cells, HIF1α", "assay_type": "cell-based, human", "details": "treated 24 hours, Western blot", "experimental": "as §2\n(§3) Human Ovarian cancer cell lines: A2780, Coav3, HeyA8, HeyA8-MDR, Kuramochi, OVCAR3, OVCAR5, OVCAR8, and SKOV3 were obtained and used in studies.\n(§4) In vitro assays: Cell viability assay, Western blotting, Colony formation assay, Reverse-phase protein array, and Ultra-high resolution mass spectrometry analysis were performed."}, "mTOR [2]": {"system": "mTOR", "assay": "Western blotting of ovarian cancer cells, mTOR", "assay_type": "cell-based, human", "details": "treated 24 hours, Western blot", "experimental": "as §2, §3, §4"}, "AKT [3]": {"system": "AKT", "assay": "Western blotting of ovarian cancer cells, AKT", "assay_type": "cell-based, human", "details": "treated 24 hours, Western blot", "experimental": "as §2, §3, §4"}, "[4]": {"system": "hypoxia-inducible factor-la", "assay": "Reverse Phase Protein Array (RPPA), HIF-1α", "assay_type": "cell-based, human", "experimental": "as §4"}, "AKT [5]": {"system": "AKT", "assay": "Reverse Phase Protein Array (RPPA), AKT", "assay_type": "cell-based, human", "experimental": "as §4"}, "mTOR [6]": {"system": "mTOR", "assay": "Reverse Phase Protein Array (RPPA), mTOR", "assay_type": "cell-based, human", "experimental": "as §4"}, "ovarian cancer cells": {"system": "ovarian cancer cells", "assay": "Cell viability assay / cytotoxic effect in ovarian cancer cell lines", "assay_type": "cell-based, human", "experimental": "as §3, §4, §1"}, "hexokinase 2": {"system": "hexokinase 2", "assay": "Hexokinase activity and expression (ultra-high resolution mass spectrometry, FIG. 10)", "assay_type": "cell-based, human", "experimental": "as §4\n(§5) (ns, not significant, **P<0.01; **P<0.001 (vs. control; Student t-test))."}, "cancer cells": {"system": "cancer cells", "assay": "Glycolysis and ATP synthesis in cancer cells", "assay_type": "cell-based", "description": "as §5"}, "AKT [7]": {"system": "AKT", "assay": "In vivo pharmacodynamic experiment, OVCAR8 mouse model, AKT", "details": "dose of 500 mg/kg", "experimental": "as §1\n(§6) FIGS. 11A-11B show pharmacodynamics studies of GP-2250."}, "mTOR [8]": {"system": "mTOR", "assay": "In vivo pharmacodynamic experiment, OVCAR8 mouse model, mTOR", "details": "dose of 500 mg/kg", "experimental": "as §1, §6"}, "[9]": {"details": "2.5 μg/ml or 10 μg/ml, compared to control"}}, "note": "“Also recorded” adds a separate entry of the source.", "data": [{"molecule": "O=S1(=O)CCOCN1", "note": "[GP-2250]", "values": [{"measurement": "number of sprouts per spheroid", "setting": "[1]; [9]", "value": "statistically significant reductions"}, {"measurement": "total sprout length", "setting": "[1]; [9]", "value": "statistically significant reductions"}, {"measurement": "VEGF-induced endothelial cell sprouting", "setting": "[1]; GP-2250 10 μg/ml, 24 hours", "value": "inhibits VEGF-induced endothelial cell sprouting"}, {"measurement": "nodules (tumor nodule number)", "setting": "OVCAR8-L", "value": "2.9±0.48"}, {"measurement": "tumor weight", "setting": "OVCAR8-L", "value": "2.9 ± 0.48", "unit": "g"}, {"measurement": "VEGF secretion in cancer cells", "setting": "VEGF", "value": "significantly reduced VEGF secretion"}, {"measurement": "HIF1α expression in cancer cells", "setting": "HIF1α", "value": "reduced HIF1α expression"}, {"measurement": "mTOR expression", "setting": "mTOR [2]", "value": "inhibits"}, {"measurement": "AKT expression", "setting": "AKT [3]", "value": "inhibits"}, {"measurement": "hypoxia-inducible factor-la activation and expression level", "setting": "[4]", "value": "inhibited"}, {"measurement": "AKT activation and expression level", "setting": "AKT [5]", "value": "inhibited"}, {"measurement": "mTOR activation and expression level", "setting": "mTOR [6]", "value": "inhibited"}, {"measurement": "apoptosis in ovarian cancer cells", "setting": "ovarian cancer cells", "value": "increased apoptosis"}, {"measurement": "proliferation in ovarian cancer cells", "setting": "ovarian cancer cells", "value": "reduced proliferation"}, {"measurement": "cancer cell viability", "setting": "ovarian cancer cells; FIG. 10D, with siRNA targeting hexokinase 1 and hexokinase 2", "value": "reduces cancer cell viability"}, {"measurement": "cytotoxic effect, vulnerability of HRD versus HRP ovarian cancer cells", "setting": "ovarian cancer cells; HRD (Kuramochi, OVCAR4, OVCAR8) vs HRP (A2780, OVCAR5), 10 ovarian cancer cell lines", "value": "more vulnerable to GP-2250 than Homologous Recombination Proficiency (HRP) ovarian cancer cells"}, {"measurement": "hexokinase activity and protein expression levels", "setting": "hexokinase 2; FIG. 10C", "value": "inhibits hexokinase activity and protein expression levels"}, {"measurement": "hexokinase 2 activity and expression", "setting": "hexokinase 2; ultra-high resolution mass spectrometry (HRMS) analysis", "value": "significantly reduced"}, {"measurement": "ATP synthesis in cancer cells", "setting": "cancer cells", "value": "reduced"}, {"measurement": "glycolysis in cancer cells", "setting": "cancer cells", "value": "decreases glycolysis; also recorded: reduced glycolysis"}, {"measurement": "downregulating AKT activation and expression", "setting": "AKT [7]", "value": "most effective"}, {"measurement": "downregulating mTOR activation and expression", "setting": "mTOR [8]", "value": "most effective"}]}, {"molecule": "bevacizumab: recombinant humanized monoclonal IgG1 antibody that specifically binds to and blocks the biological effects of VEGF [reference compound]", "values": [{"measurement": "nodules (tumor nodule number)", "setting": "OVCAR8-L", "value": "3.8±0.71"}, {"measurement": "tumor weight", "setting": "OVCAR8-L", "value": "0.43 ± 0.08", "unit": "g"}]}]}
